The record followed here is PubChem BioAssay (NCI).

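Following 48 hours of exposure in 96-well plates, responses at five concentrations were used to interpolate endpoints linearly. At the TGI there is no net growth.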

Test in all cases: inhibition of tumour cell growth, NCI panel, 48 h
In experiment [1] the test system is SNB-75 CNS.
The subject of experiment [2] is TK-10 renal.
Experiment [3] concerns U251 CNS.
Experiment [4] deals with RXF 393 renal.
Experiment [5] has as its system NCI-H226 lung.
Experiment [6] has as its system SR leukemia.
The test system of experiment [7] is MDA-MB-231 breast.
Experiment [8] relates to NCI-H460 lung.
For experiment [9], the system named is SNB-19 CNS.
The subject of experiment [10] is ACHN renal.
Experiment [11] has as its system NCI/ADR-RES ovarian.
For experiment [12], the system named is DU-145 prostate.
In experiment [13] the test system is HOP-92 NSCLC.
The test system of experiment [14] is UACC-62 melanoma.
The test system of experiment [15] is COLO 205 colon.
Experiment [16] deals with K-562 leukemia.
Experiment [17] has as its system OVCAR-5 ovarian.
Experiment [18] deals with UO-31 renal.
Experiment [19] relates to SN12C renal.

Turning to `C[C@@H](NC(=O)Cn1c(Cl)nc2ccccc21)c1ccccc1`, the TGI in [1], in experiment [2], in experiment [3], in [4], in [5] and in [6] was greater than 100 µM throughout. The TGI in experiment [7], in experiment [8], in [9], in experiment [10], in experiment [11] and in experiment [12] was greater than 100 µM throughout. Moreover, the TGI in experiment [13], in experiment [14], in experiment [15], in experiment [16], in experiment [17] and in experiment [18] was greater than 100 µM throughout.

Turning to `N#Cc1c(N)nc(SCc2ccccc2)c(C#N)c1-c1ccc(O)cc1`, the TGI in [1] is 38.9 µM; in [2], greater than 64.7 µM; in [3] it was 30.5 µM; in experiment [4], 45.1 µM; in [5] it was 48.2 µM; in experiment [6], 34.7 µM. Further, the TGI was 28.5 µM in experiment [7]; 33.4 µM in [19]; greater than 65.8 µM in experiment [8]; 41.6 µM in experiment [9]; 28.9 µM in experiment [10]; 45.7 µM in [11]. Besides, the TGI in experiment [12] is 27.2 µM; in [13], 22 µM; in experiment [14], 39.8 µM; in experiment [15], 37.8 µM; in [16], 37.8 µM; in experiment [17], 32.2 µM. Also, the TGI in [18] amounted to 3.9 µM.

As for `COC(=O)[C@@H](NC(=O)[C@H](N)Cc1ccc(N(CCCl)CCCl)cc1)C(C)C`, the TGI in experiment [1] is 66.6 µM; in experiment [2] it was 56.7 µM; in experiment [3] it was greater than 100 µM; in experiment [4], 55.5 µM; in experiment [5], 59.2 µM; in experiment [6], greater than 38.6 µM. In addition, the TGI in experiment [7] was 57.7 µM; in experiment [19], greater than 79.7 µM; in [8], 26.3 µM; in experiment [9] it was greater than 100 µM; in experiment [10], 51.8 µM; in experiment [11], 40.8 µM. In addition, the TGI in experiment [12] is 59.1 µM; in [13] it was 5.72 µM; in experiment [14] it was 13.4 µM; in experiment [15], greater than 64.4 µM; in experiment [16] it was 40.3 µM; in [17], greater than 100 µM. In addition, the TGI in experiment [18] worked out at 33 µM.

Consider `CCO[C@@]12CCC3CC4CC[C@@](OCC)(O1)C4C32` (some centres not stated), for which the TGI in experiment [1], in [2], in experiment [3], in [4], in [5] and in experiment [6] was greater than 100 µM in each case. The TGI in [7], in experiment [19], in experiment [8], in experiment [9], in experiment [10] and in experiment [11] was greater than 100 µM in each case. In addition, the TGI in experiment [12], in [13], in experiment [14], in experiment [15], in experiment [16] and in experiment [17] was greater than 100 µM each time. In addition, the TGI in experiment [18] was greater than 100 µM.

Consider `COc1ccc(CCc2ccc3c(c2)OCO3)cc1`, for which the TGI in experiment [1] was greater than 100 µM; in experiment [2], greater than 100 µM; in experiment [3], greater than 100 µM; in experiment [4], 86 µM; in [5], greater than 100 µM; in experiment [6], 45.4 µM. The TGI in [7], in experiment [19], in experiment [8], in experiment [9], in [10] and in experiment [11] was greater than 100 µM in each case. Besides, the TGI in experiment [12], in experiment [13], in [14], in experiment [15], in experiment [16] and in [17] was greater than 100 µM throughout.

Consider `C1=Nc2ccc(cc2)-c2ccc(cc2)N=Cc2ccc(cc2)OCc2cccc(n2)COc2ccc1cc2`, for which the TGI in experiment [1], in [3], in [4], in experiment [5], in [6] and in experiment [7] was greater than 100 µM in each case. For the same compound, the TGI in experiment [19], in experiment [8], in experiment [9], in experiment [10], in [11] and in experiment [12] was greater than 100 µM in each case. The TGI in experiment [13], in [14], in [15], in experiment [16], in experiment [17] and in experiment [18] was greater than 100 µM throughout.

In the case of `CC[C@@H]([C@H](O)c1ccccc1Cl)[N+](=O)[O-]`, the TGI in [1], in experiment [2], in [3], in experiment [4], in [5] and in experiment [6] was greater than 100 µM in each case. For the same compound, the TGI in experiment [7], in experiment [19], in [8], in experiment [9], in [10] and in experiment [11] was greater than 100 µM each time. Also, the TGI in [12], in experiment [13], in experiment [14], in experiment [15], in experiment [17] and in experiment [18] was greater than 100 µM throughout.

For the compound `CC(=O)N1C(=O)c2cc3ccccc3cc21`, the TGI in [1], in [2], in experiment [3], in [5], in [6] and in [7] was greater than 100 µM each time. In addition, the TGI in experiment [19], in experiment [8], in experiment [9], in experiment [10], in experiment [11] and in experiment [12] was greater than 100 µM in each case. Moreover, the TGI in experiment [13], in experiment [14], in [15], in experiment [16], in experiment [17] and in [18] was greater than 100 µM throughout.
